Data set [1] has as its system αLβ2-mediated adhesion of Mn++-activated H9 cells to ICAM-1. Briefly: Cell adhesion assay: adhesion of Mn2+-activated H9 cells to ICAM-1-Fc. In kind it is cell-based, human. The note with it: for blocking of adhesion (in words): at 100 μM; for inhibition of cell adhesion to ICAM-1 (in words): Mn++-activated H9 cells, cell-permeable fusion peptide. The procedure:
The human T lymphoma cell line H9, was purchased from the American Type Culture Collection, Rockville, Md. It was cultured at 37° C. in 1640 medium supplemented with 50 U/ml penicillin, 50 μg/ml streptomycin, 200 μg/ml L-glutamine, 10% (v/v) FCS and 0.05 mM β-mercaptoethanol. All synthetic peptides were custom made by Mimotopes Pty Ltd., Victoria, Australia. The β2cyt peptides were N-terminally fused during synthesis to biotinylated penetratin (RQIKIWFQNRRMKWKK—Seq ID No. 22) or to a biotinylated D-isomeric form of an R9 polymer (Seq ID No. 32) to render them cell-permeable.
The soluble ICAM-1-Fc chimera was produced using the glutamine synthetase gene amplification system. The extracellular portions of human ICAM-1 fused to the Fc domain of human IgG1 were expressed from the pEE14 vector (kindly provided by Dr Chris Bebbington, Celltech Ltd, UK) in CHO K1 cells as described previously (18).
Lab-Tek 16-well glass slides (Nunc) or flat-bottom 96-well plates (Nunc Maxisorp) were coated overnight at 4° C. with purified ICAM-1-Fc at 10 μg/well in 100 μl of 0.1 M carbonate buffer (pH 9.5). After washing plates were blocked with 100% heat-inactivated FCS, and washed with Hanks balanced salt solution (HBSS) containing 10 mM Hepes, 2 mM Ca^2+ and 2 mM Mn^2+. H9 cells were either left unlabeled or labeled with the fluorescent dye chloromethyl fluorescein diacetate (CMFDA; Molecular Probes, Oregon). For peptide inhibition studies, H9 cells were preincubated with peptide in serum-free medium for 30 min at 37° C. and activated by suspension in an Mn^2+-containing buffer (HBSS: 10 mM Hepes containing 2 mM Ca^2+, 2 mM Mn^2+, and 2% FCS). Human IgG1 Ab (10 μg/ml; Sigma) was added to prevent nonspecific capture of cells to the Fc portion of […]. Cells were checked for viability by trypan blue exclusion, added to wells (10^6cells/well), and incubated for 30 min at 37° C. in a humidified atmosphere of 5% CO2. Non-adherent cells were removed by inverse centrifugation of the plates at 70×g for 5 min followed by gentle pipette washing. The number of unlabeled adherent cells was determined by counting the number of adherent cells in four independent fields at 100× magnification under an inverted microscope. The fluorescence of CMFDA-labeled adherent cells was measured using a VICTOR1420 multilabel counter (Wallac). Representative data are reported as mean±SD of two independent experiments performed in duplicate.

Setting [2] is: at 6 μM, H9 cells to ICAM-1, r9 fusion.
Setting [3] is: at 25 μM, Mn++-activated H9 cells to ICAM-1, fused to r9.
The mark [4] stands for this setting: at 50 μM, Mn++-activated H9 cells to ICAM-1, fused to r9.

Read-outs that look alike come from different tables or passages of the source. No end group written: not given here.

In data set [1] (setting [2]), “r9-NPLFKS: β2cyt hexamer synthesized as fusion with the r9 carrier peptide (not fully specified (N-terminus); printed as r9-NPLFKS)” returned an inhibition of adhesion of 24%. For the same substance, the “blocking of adhesion (in words)” value in data set [1] (H9 cells to ICAM-1, r9 fusion) is recorded as “almost completely blocked adhesion”.
On to KALIHLSDLREY, for which the “uptake of penetratin fusion peptide into cells” value in the data set on H9 cells is “readily taken up”.
Substance “r9-NPKF: core talin-binding motif of β2cyt synthesized as fusion with the r9 carrier peptide (not fully specified (N-terminus); printed as r9-NPKF)” registered an inhibition of adhesion in data set [1] (setting [2]) of 82%. The “blocking of adhesion (in words)” value in data set [1] (H9 cells to ICAM-1, r9 fusion) is on record as “almost completely blocked adhesion”.
In the case of “VMNPKFAES (not fully specified (N-terminus); also: biotinylated r9 carrier, attachment not given here) [β2cyt peptide fused to r9 (biotinylated D-isomeric nine-arginine polymer) to render it cell-permeable]”, the “inhibition of cell adhesion to ICAM-1 (in words)” value in data set [1] was “active”. The inhibition of adhesion in data set [1] (setting [3]) is listed as about 50%; in data set [1] (setting [4]) it was about 80%.
On the same counts, the results for “NPLFKSATTT (not fully specified (N-terminus); also: biotinylated r9 carrier, attachment not given here) [β2cyt peptide fused to r9 (biotinylated D-isomeric nine-arginine polymer) to render it cell-permeable]” are “active”, about 50% and about 80%.
Take YRRFEKEKLKSQWNND: in the data set on H9 cells (human cell line H9, biotinylated peptide detected with streptavidin-FITC), the “uptake of penetratin fusion peptide into cells” value is given as “readily taken up”.

The record behind these values is US20090118174A1, “Novel peptides and methods for the treatment of inflammatory disorders” (Auckland Uniservices Limited, priority 2005, published 2009).
